Experimental data published in patent US9724328B2, “Methods and compositions for treatment of lipid storage disorders” (NEUROTROPE BIOSCIENCE, priority 2014, dated 2017).

Experiments:
[1] = test system: NPC3-SV cells; test: Stored cholesterol by filipin staining in NPC3-SV cells; type: cell-based, Human; conditions: for clearance of cholesterol (stored cholesterol levels): 48 h, FIG. 8
Procedure: (§1) Cells are plated in 6-well dishes and treated with the appropriate compound (dissolved in DMSO) at the indicated dose daily for 48 hrs. Control cells receive DMSO. After 48 hrs cells are transferred to cover slips with fresh compound and grown for another 24 hrs. Cover slips are collected and processed for microscopy.
(§2) Filipin: For detection of unesterified cholesterol in lysosomes, cells were fixed in formalin for 30 min at 4° C., washed 2×, 5 min in 0.9% NaCl, incubated for 45 min with 0.01% filipin in PBS at room temperature, and then washed 2×, 5 min. Fluorescence was observed using a Nikon Eclipse fluorescence microscope (Nikon, Melville, N.Y.) equipped with a CCD camera. Fluorescence signals were quantified using Nikon's imaging and quantitation software package NIS Elements, v. 3.22.

[2] = test system: NPC24-SV cells; test: Cholesterol accumulation by filipin staining in NPC24-SV cells; type: cell-based, Human
Procedure: as §1, §2

[3] = test system: NPC24-SV cells; test: Glycosphingolipid accumulation by VTB staining in NPC24-SV cells; type: cell-based, Human; conditions: 0.1 nM
[4] = test system: C57Bl6 NPC1 mice; test: Survival of C57Bl6 NPC1 mice dosed IP twice weekly; type: in vivo, mouse
Procedure: A total of […] C57Bl6 NPC1 mice, mixed sex, were used. These mice were separated into 5 groups of 5 mice each, Groups 1-5.
Bryostatin 1 (purity≧95%) from Aphios (Woburn, Mass.), 1 vial 2 mg, was solubilized in a 5% DMSO, 20% Solutol and 75% Saline solution and used as the study drug. The negative (vehicle) control is a 5% DMSO, 20% Solutol and 75% Saline solution. DCP-LA from Sigma-Aldrich: 5 mg oil/vial was used as an additional in vitro active compound. Bryostatin 1 (API) was stored at or below −20° C. and formulated as needed. The formulated bryostatin 1 was stored at 2° to 8° C. for less than 24 hour(s). The DCP-LA and the vehicle controls were stored at 2°-8° C.
The stock solution of bryostatin 1 is 10 mg/ml in DMSO, which is kept at −80° C. in aliquots. The dosing formulation is made by diluting the stock first in DMSO, then adding solutol, and lastly saline—with more insoluble compounds, adding the drug stock to complete vehicle will cause the compound to come out of solution, so we make formulations stepwise. The dosing volume is always 100 μl. Mice weigh approximately 20 g.
The mice are dosed twice weekly (Mon and Thu) starting at 30 days for up to 150 days.
C57 NPC1 mice have an average life span of ˜110 days. By Day 70 mice reach an average weight of 18-22 grams. Untreated NPC1 mice develop ataxia and will begin to lose weight at ˜70 days (see FIG. 17). Ataxia (or lack of voluntary muscle control) is a clinical feature of NPC1 mice, which may be described as shaking. Treatment will be initiated at ˜30 days of age, average NPC mouse weight of 10 g. If the drug is efficacious injections will continue past day 70-80. An extension of life of about 20-30% will mean that animals will need to be treated up to day 130-150.

[5] = test system: human NPC1 fibroblasts (NPC1 3123); test: Soluble vimentin levels by Western blot after fatty acid treatment; type: cell-based; conditions: for soluble vimentin in NPC1 cells: discussion statement, FIG. 5, concentration not given; for levels of soluble vimentin in cell lysates: human NPC1 fibroblasts, 50 μg/ml, 48 hours (FIG. 5 legend: 24 hrs)
Procedure: The human wild-type fibroblast (GM05387), NPClo fibroblast (GM09341), and NPC1 fibroblast (GM03123) cell lines were obtained from Coriell Cell Repositories (Camden, N.J.). The M12 Chinese hamster ovary (CHO) cell line and its wild-type parental line were obtained and cultured. Fibroblast cell lines were cultured in DMEM, and CHO cells were cultured in DMEM/F12 (50:50) medium, supplemented with 10% FBS, 2 mM L-glutamine, and 50 μg/ml gentamicin in a humidified incubator at 37° C. with 5% CO2.
Transfected cells were harvested with PBS containing 2 mM EDTA at 2 days post-transfection. Soluble and insoluble cell fractions were prepared as described previously. Briefly, to obtain the soluble/cytoplasmic fraction, cells were incubated on ice for 30 min in cold “phospho” buffer [150 mM NaCl, 20 mM NaF, 100 μM Na3VO4, 20 mM Hepes, pH 7.5), 1% (v/v) Igepal, 10% (v/v) glycerol, and 1 μL/20 mg tissue of protease inhibitor cocktail] and then centrifuged for 20 min at 14,000 rpm at 4° C.; the clear supernatant was frozen in aliquots at a concentration of 1 μg/μl. The pellet (insoluble fraction) was washed 3 times in ice-cold PBS containing 2 mM EDTA and then resuspended in a volume of “Triton” buffer [PBS, 1% (w/v) SDS, and 0.1% (v/v) Triton X-100] equal to the “phospho” buffer. This solution was boiled for 10 min and sonicated until the solution became clear. The protein concentration of this fraction was adjusted to 1 μg/μl according to the protein concentrations determined for the soluble/cytoplasmic fraction. Protein concentrations were determined using the fluorescamine method as we have described. 4-12% Bis-Tris precast gel (Invitrogen, Carlsbad, Calif.) and then transferred onto a Protran membrane using an XCell II apparatus (Invitrogen, Carlsbad, Calif.) according to the manufacturer's instructions. Blots were processed as described previously.

[6] = test system: M12 NPC1 CHO cells; test: Cholesterol esterification assay ([3H] oleate); type: cell-based, Chinese hamster; conditions: 50 μg/ml fatty acid for 2 days followed by expression of PKC ε
Procedure: The preparation of [^3H] oleate substrate and esterification assays were performed as previously described. Cells were treated with 50 μg/ml fatty acid for 2 days and then transfected with PKE α or PKC ε for 24 hrs before esterification assays. All values were generated in triplicate and normalized for total cell protein.

[7] = test system: human NPC1 3123 cells; test: Sphingolipid transport, BODIPY-LacCer staining; type: cell-based; conditions: 48 hours
Text: For filipin staining in transfected cells, cells were transfected with PKC or Rab9 using Fugene 6 according to the manufacturer's recommendations. After 48 hrs, cells were stained with filipin as we have previously described. Cells were mounted onto slides using Fluoromount-G (SouthernBiotech, Birmingham, Ala.) and analyzed on a Nikon Eclipse microscope fitted with a charge-coupled-device camera (Nikon, Melville, N.Y.). Images were acquired with MetaVue software and then deconvoluted using AutoDeblur software from AutoQuant Imaging, Inc (Troy, N.Y.). For quantitation of filipin fluorescence, cells were seeded at 3×10^5 cells/well in 6-well dishes and allowed to settle overnight, after which the medium was replaced with medium containing 10% lipoprotein deficient serum (LPDS) for 4 days. Cells were incubated with oleic/linoleic acids for 48 hours, DCPLA/DHA for 24 hrs, or diazoxide for 72 hrs before fixing and staining with filipin as we have previously described. Images were acquired using the same exposure time for all samples. Fluorescence intensity was determined using the integrated intensity function of MetaVue software; at least 150 cells were quantitated for each sample and each experiment was repeated 3 times. For analysis of sphingolipid transport, cells were incubated with oleic/linoleic acids, DCP-LA, or PMA for 48 hours before BODIPY-LacCer staining was performed as previously described.

[8] = test system: NPC3SV cells; type: cell-based, Human; conditions: FIG. 12, concentration not given
[9] = test system: NPC cells; conditions: earlier study [5]; cited from earlier work

CC1=NS(=O)(=O)c2cc(Cl)ccc2N1 [diazoxide]
clearance of cholesterol (stored cholesterol levels) [1]: able to induce clearance of cholesterol

CCC/C=C/C=C/C(=O)O[C@H]1/C(=C/C(=O)OC)C[C@H]2C[C@H]([C@@H](C)O)OC(=O)C[C@H](O)C[C@@H]3C[C@H](OC(C)=O)C(C)(C)[C@](O)(C[C@@H]4C/C(=C/C(=O)OC)C[C@H](/C=C/C(C)(C)[C@]1(O)O2)O4)O3 [bryostatin 1]
clearance of cholesterol (stored cholesterol levels) [1]: able to induce clearance of cholesterol
stored cholesterol levels ([1]; 72 h, FIG. 9): activity in the nanomolar concentration range
effect in cholesterol assay ([2]; 0.1 nM, NPC24-SV cells): no effect
cholesterol clearance ([2]; 10 nM, NPC24-SV cells, FIG. 11): able to effect cholesterol clearance
concentration showing a positive therapeutic effect ([2]; human NPC1 disease cells, summary of Example 2): 10 to 100 nM
effect in sphingolipid assay [3]: no effect
age that mice lived past ([4]; 10 μg/kg IP twice weekly from 30 days of age): > 100 days
age that mice lived past ([4]; 20 μg/kg IP twice weekly from 30 days of age): > 100 days
age that mice lived past ([4]; 30 μg/kg IP twice weekly from 30 days of age): > 100 days

CCCCCCCC/C=C\CCCCCCCC(=O)O [oleic acid, cis-9-octadecenoic acid]
soluble vimentin in NPC1 cells [5]: increase of soluble vimentin
levels of soluble vimentin in cell lysates [5]: significantly increases the amount of soluble vimentin
cholesterol esterification levels over untreated cells [6]: ~3.5 fold
BODIPY-LacCer transport to the trans-Golgi network ([7]; 2 μg/ml): the lipid can be seen in the TGN

CCCCC/C=C\C/C=C\CCCCCCCC(=O)O [linoleic acid]
soluble vimentin in NPC1 cells [5]: increase of soluble vimentin
levels of soluble vimentin in cell lysates [5]: significantly increases the amount of soluble vimentin
cholesterol esterification levels over untreated cells [6]: ~3.5 fold
BODIPY-LacCer transport to the trans-Golgi network ([7]; 2 μg/ml): the lipid can be seen in the TGN

CCCCCC1CC1CC1CC1CCCCCCCC(=O)O (centres unmarked) [DCP-LA, 8-[2-(2-pentyl-cyclopropylmethyl)-cyclopropyl]-octanoic acid]
soluble vimentin in NPC1 cells [5]: increase of soluble vimentin
BODIPY-LacCer transport to the trans-Golgi network ([7]; 20 μM): the lipid can be seen in the TGN
clearance of cholesterol (stored cholesterol levels) [1]: able to induce clearance of cholesterol
filipin accumulation ([2]; NPC24-SV cells, FIG. 11, concentration not given): decrease filipin accumulation
ganglioside transport block [8]: release the ganglioside transport block

CCCCCCCCCCCCCC(=O)O[C@@H]1[C@@H](C)[C@@]2(O)[C@@H](C=C(CO)C[C@]3(O)C(=O)C(C)=C[C@@H]23)[C@@H]2C(C)(C)[C@]12OC(C)=O [PMA, phorbol-12-myristate-13-acetate]
BODIPY-LacCer transport to the trans-Golgi network ([7]; 100 nM): the lipid can be seen in the TGN
NPC lipid storage phenotype [9]: ameliorated the NPC lipid storage phenotype
levels of soluble vimentin [9]: increased levels of soluble vimentin
